Assay results from patent US20070287699A1, “ANTIVIRAL AGENTS” (ViroBay, Inc., priority 2006, published 2007).

Tested on: HCV replicon RNA replication in human Huh7 hepatoma cells
Assay: HCV replicon assay (activity levels from either or both of HCV replicon assay 1, Huh7/Clone A RT-qPCR, and assay 2, Huh7 ET luc-ubi-neo/ET)
Assay type: cell-based, Hepatitis C virus (HCV)
Conditions: Hepatitis C virus, Huh-7, either or both HCV replicon assays: Huh7/Clone A, 48 hours, 72 hours, Luc activity or RT-PCR, read-out: inhibit HCV replication at IC50 levels or estimated IC50 levels
Description: The HCV replicon assay is a cell-culture system that mimics in vivo HCV replication and provides a system to study HCV replication in vitro. It was created by transfecting cloned viral RNA derived from a consensus HCV genomic sequence into human Huh7 hepatoma cells that are semi-permissive for viral RNA production (Lohmann V., Korner F., Koch J.-O., Herian U., Theilmann L. and Bartenschlager R. (1999). Replication of subgenomic Hepatitis C virus RNAs in a hepatoma cell line. Science 285, 110-113 and Blight K. J., Kolykhalov A. A. and Rice C. M. (2000). Efficient initiation of HCV RNA Replication in cell culture. Science 290, […]). These transfected cell lines contain a subgenomic HCV RNA genome that includes (1) the HCV 5′NTR fused to 12 amino acids of the capsid coding region, (2) the neomycin phosphotransferase gene (Neo) as a selectable marker, (3) the internal ribosome entry site (IRES) from encephalomyocarditis virus (EMCV) that directs translation of HCV non-structural proteins (variously NS2 or NS3 to NS5B), and (4) the 3′ NTR. Replicon-containing cells autonomously and persistently replicate HCV RNA that can be measured quantitatively by real-time qPCR. Therefore, the replicon system facilitates quantitative assessment of anti-viral activity by monitoring changes in HCV RNA replication in a cell-based assay.
HCV replicon-containing cells (Huh7/Clone A) were routinely maintained in Clone A growth medium (DMEM medium [Invitrogen], supplemented with 10% Fetal Bovine Serum, 1% Non Essential Amino Acids and 1 g/L G418). Test compounds were dissolved in dimethyl sulfoxide (DMSO) to make 200× stock solutions for all doses prior to treatment.
For the HCV replicon assay, Huh7/Clone A cells were trypsinized from culture flasks, seeded in 1 ml of Clone A growth medium without G418 at 4×10^4 cells per well in 24-well plates and incubated at 37° C. in a humidified CO2 (5%) incubator overnight. Following overnight incubation, compound solutions were added into wells in the same volume (5 μl of 200× compound stock per well) to give a final DMSO concentration of 0.5%. Three wells on each plate supplemented with 5 μl of DMSO served as untreated controls. For IC50 determinations, compounds were tested at 7 serial dilutions in triplicates from the starting stock solutions. The plates were incubated at 37° C. for 48 hours. After incubation, cells were harvested, transferred to 96-well plates, and subjected to total RNA extraction using the RNA Isolation Kit (RNeasy 96, Qiagen) according to the protocol described by the manufacture's RNeasy 96 Handbook (Qiagen).
Total RNA eluted in 130 μl of RNase-free dH2O was quantitated by the RiboGreen Assay according to the supplier's protocol (Molecular Probe). Briefly, 5 μl of RNA samples were aliquoted in duplicate to a 96-well black microplate and a 96-well TaqMan Optical plate. RNA samples in the black microplate were mixed with 95 μl of diluted RiboGreen:reagent (1:250 dilution in TE buffer) and sample fluorescence was measured using a fluorescence microplate reader at standard fluorescein wavelengths (excitation ˜480 nm, emission ˜520 nm). Ribosomal RNA (Molecular Probe) was used as standard.
TaqMan quantitative PCR (RT-qPCR) was used to quantitate the amount of HCV replicon RNA in each sample. The RT-qPCR reactions were performed in 25 μl on an ABI PRISM 7900 HT Sequence Detection System (Applied Biosystems). The reaction mixture contained 5 μl of total RNA (10-100 ng), 1× TaqMan Buffer A (Applied Biosystems), 5.5 mM MgCl2, 1.2 mM dNTP mix, 0.625 U of AmpliTaq Gold (Applied Biosystems), 5 U of MMLV reverse transcriptase (Promega), 5 U of rRNasin (Promega), 300 nM each of the forward and reverse primers, and 100 nM TaqMan MGB probe. Primers and probe were designed to hybridize to a portion of the neomycin resistance gene (neo) in the replicon and the sequences are as follows: forward primer 5′-GGCTACCTGCCCATTCGA-3′; reverse primer 5′-CCGGCTTCCATCCGAGTAC-3′; MGB probe 5′-CCACCAAGCGAAACA-3′. […]

| Compound | IC50 |
| --- | --- |
| CC(c1ccc(C(F)(F)F)cc1)n1cc(-c2noc(C(C)(C)c3ccc(F)cc3)n2)c(=O)c2cc(F)c(N3CCOCC3)cc21 (stereo not drawn) [Compound 109, 6-fluoro-3-(5-(2-(4-fluorophenyl)propan-2-yl)-1,2,4-oxadiazol-3-yl)-7-morpholino-1-(1-(4-(trifluoromethyl)phenyl)ethyl)quinolin-4(1H)-one] | < 2 µM |
| CN1CCN(c2cc3c(cc2F)c(=O)c(-c2noc(CC4CCCC4)n2)cn3Cc2ccc(C(F)(F)F)cc2F)CC1 [Compound 17, 3-(5-cyclopentylmethyl-[1,2,4]oxadiazol-3-yl)-6-fluoro-1-(2-fluoro-4-trifluoromethyl-benzyl)-7-(4-methyl-piperazin-1-yl)-1H-quinolin-4-one] | < 2 µM |
| CC(C)(c1ccccc1)c1nc(-c2cn(Cc3ccc(C(F)(F)F)cc3)c3cc(N4CCOCC4)c(F)cc3c2=O)no1 [Compound 146, 6-fluoro-7-morpholino-3-(5-(2-phenylpropan-2-yl)-1,2,4-oxadiazol-3-yl)-1-(4-(trifluoromethyl)benzyl)quinolin-4(1H)-one] | < 0.5 µM |
| CC(C)(c1ccccc1)c1nc(-c2cn(Cc3ccc(C(F)(F)F)cc3)c3cc(N4CCNC(=O)C4)c(F)cc3c2=O)no1 [Compound 126, 6-fluoro-7-(3-oxopiperazin-1-yl)-3-(5-(2-phenylpropan-2-yl)-1,2,4-oxadiazol-3-yl)-1-(4-(trifluoromethyl)benzyl)quinolin-4(1H)-one] | < 0.5 µM |
| CC(C)(c1ccccc1)c1nnc(-c2cn(Cc3ccc(C(F)(F)F)cc3)c3cc(N4CCOCC4)c(F)cc3c2=O)o1 [Compound 167, 6-fluoro-7-morpholino-3-(5-(2-phenylpropan-2-yl)-1,3,4-oxadiazol-2-yl)-1-(4-(trifluoromethyl)benzyl)quinolin-4(1H)-one] | < 2 µM |
| Cc1ccccc1Cc1nc(-c2cn(CC3CCCCC3)c3cc(N4CCN(C)CC4)c(F)cc3c2=O)no1 [Compound 20, 1-cyclohexylmethyl-6-fluoro-3-[5-(2-methyl-benzyl)-[1,2,4]oxadiazol-3-yl]-7-(4-methyl-piperazin-1-yl)-1H-quinolin-4-one] | < 10 µM |
| C[C@@H](c1ccccc1)n1cc(-c2noc(C(C)(C)c3ccccc3)n2)c(=O)c2cc(F)c(N3CCOCC3)cc21 [Compound 143, (S)-6-fluoro-7-morpholino-1-(1-phenylethyl)-3-(5-(2-phenylpropan-2-yl)-1,2,4-oxadiazol-3-yl)quinolin-4(1H)-one] | > 10 µM |
| CN1CCN(c2cc3c(cc2F)c(=O)c(-c2noc(C(CC(=O)O)c4ccccc4)n2)cn3Cc2ccc(Cl)cc2)CC1 (stereo not drawn) [Compound 31, 3-{3-[1-(4-chloro-benzyl)-6-fluoro-7-(4-methyl-piperazin-1-yl)-4-oxo-1,4-dihydro-quinolin-3-yl]-[1,2,4]oxadiazol-5-yl}-3-phenyl-propionic acid] | > 10 µM |
| O=C(O)c1cn(-c2cc3c(cc2F)c(=O)c(-c2noc(Cc4ccccc4)n2)cn3Cc2ccc(C(F)(F)F)cc2F)cn1 [Compound 104, 1-(3-(5-benzyl-1,2,4-oxadiazol-3-yl)-6-fluoro-1-(2-fluoro-4-(trifluoromethyl)benzyl)-4-oxo-1,4-dihydroquinolin-7-yl)-1H-imidazole-4-carboxylic acid] | > 10 µM |
| O=c1c(-c2noc(Cc3ccccc3)n2)cn(Cc2ccc(Cl)cc2)c2cc(N3CCC(O)CC3)c(F)cc12 [Compound 26, 3-(5-benzyl-[1,2,4]oxadiazol-3-yl)-1-(4-chloro-benzyl)-6-fluoro-7-(4-hydroxy-piperidin-1-yl)-1H-quinolin-4-one] | > 10 µM |
| CN1CCN(c2cc3c(cc2F)c(=O)c(-c2noc(Cc4ccccc4)n2)cn3Cc2ccccc2F)CC1 [Compound 45, 3-(5-benzyl-[1,2,4]oxadiazol-3-yl)-6-fluoro-1-(2-fluoro-benzyl)-7-(4-methyl-piperazin-1-yl)-1H-quinolin-4-one] | < 10 µM |
| O=c1c(-c2noc(Cc3ccccc3)n2)cn(Cc2ccc(C(F)(F)F)cc2)c2cc(NCCN3CCOCC3)c(F)cc12 [Compound 72, 3-(5-benzyl-[1,2,4]oxadiazol-3-yl)-6-fluoro-7-(2-morpholin-4-yl-ethylamino)-1-(4-trifluoromethyl-benzyl)-1H-quinolin-4-one] | < 2 µM |
| CC(C)(C)c1ccc(Cn2cc(-c3noc(Cc4ccccc4)n3)c(=O)c3cc(F)c(N4CCCNCC4)cc32)cc1 [Compound 102, 3-(5-benzyl-[1,2,4]oxadiazol-3-yl)-1-(4-tert-butyl-benzyl)-7-[1,4]diazepan-1-yl-6-fluoro-1H-quinolin-4-one] | < 2 µM |
| CN1CCN(c2cc3c(cc2F)c(=O)c(-c2noc(C(C)(C)c4ccccc4)n2)cn3Cc2ccc(Cl)nc2)CC1 [Compound 92, 1-(6-chloro-pyridin-3-ylmethyl)-6-fluoro-3-[5-(1-methyl-1-phenyl-ethyl)-[1,2,4]oxadiazol-3-yl]-7-(4-methyl-piperazin-1-yl)-1H-quinolin-4-one] | < 0.5 µM |
| CN1CCN(c2cc3c(cc2F)c(=O)c(-c2noc(Cc4ccccc4)n2)cn3CC2CCCCC2)CC1 [Compound 9, 3-(5-benzyl-[1,2,4]oxadiazol-3-yl)-1-cyclohexylmethyl-6-fluoro-7-(4-methyl-piperazin-1-yl)-1H-quinolin-4-one] | < 2 µM |
| CN1CCN(c2cc3c(cc2F)c(=O)c(-c2noc(C(CCCCN)c4ccccc4)n2)cn3Cc2ccc(Cl)cc2)CC1 (stereo not drawn) [Compound 82, 3-[5-(5-amino-1-phenyl-pentyl)-[1,2,4]oxadiazol-3-yl]-1-(4-chloro-benzyl)-6-fluoro-7-(4-methyl-piperazin-1-yl)-1H-quinolin-4-one] | < 10 µM |
| CC(C)(c1ccc(F)cc1)c1nc(-c2cn(Cc3ccc(F)cc3)c3ccccc3c2=O)no1 [Compound 156, 1-(4-fluorobenzyl)-3-(5-(2-(4-fluorophenyl)propan-2-yl)-1,2,4-oxadiazol-3-yl)quinolin-4(1H)-one] | > 10 µM |
| CC(=O)NCCCCC(c1ccccc1)c1nc(-c2cn(Cc3ccc(Cl)cc3)c3cc(N4CCN(C)CC4)c(F)cc3c2=O)no1 (stereo not drawn) [Compound 85, N-(5-{3-[1-(4-chloro-benzyl)-6-fluoro-7-(4-methyl-piperazin-1-yl)-4-oxo-1,4-dihydro-quinolin-3-yl]-[1,2,4]oxadiazol-5-yl}-5-phenyl-pentyl)-acetamide] | < 2 µM |
| CC(C)(c1ccc(F)cc1)c1nc(-c2cn(Cc3ccc(C(F)(F)F)cc3)c3cc(N4CCSCC4)c(F)cc3c2=O)no1 [Compound 132, 6-fluoro-3-(5-(2-(4-fluorophenyl)propan-2-yl)-1,2,4-oxadiazol-3-yl)-7-thiomorpholino-1-(4-(trifluoromethyl)benzyl)quinolin-4(1H)-one] | < 0.5 µM |
| CN1CCN(c2cc3c(cc2F)c(=O)c(-c2noc(CC4CCCC4)n2)cn3CC2CCCCC2)CC1 [Compound 15, 1-cyclohexylmethyl-3-(5-cyclopentylmethyl-[1,2,4]oxadiazol-3-yl)-6-fluoro-7-(4-methyl-piperazin-1-yl)-1H-quinolin-4-one] | < 10 µM |
| Cc1cn(-c2cc3c(cc2F)c(=O)c(-c2noc(Cc4ccccc4)n2)cn3Cc2ccc(C(F)(F)F)cc2F)cn1 [Compound 57, 3-(5-benzyl-[1,2,4]oxadiazol-3-yl)-6-fluoro-1-(2-fluoro-4-trifluoromethyl-benzyl)-7-(4-methyl-imidazol-1-yl)-1H-quinolin-4-one] | < 10 µM |
